In brackets after ≈: the same amount, converted by molar mass.
Legend:
Trypanosoma cruzi [1] = assay: Antitrypanosomal activity against Trypanosoma cruzi Y by MTT assay; type: functional, organism-based
Trypanosoma cruzi [2] = assay: Antitrypanosomal activity against Trypanosoma cruzi Y intracellular amastigotes; type: functional, organism-based
Haemophilus = assay: Antibacterial activity against Haemophilus sp.; type: functional
Klebsiella pneumoniae = assay: Antibacterial activity against Klebsiella pneumoniae; type: functional
Morganella morganii = assay: Antibacterial activity against Proteus morgana; type: functional
Serratia marcescens = assay: Antibacterial activity against Serratia marcescens; type: functional
Salmonella sp. [3] = assay: Antibacterial activity against Salmonella sp.; type: functional
Herpesviridae sp. = assay: Antiviral activity against Herpes simplex virus infected in mouse assessed as mouse survival at 400 mg/kg, sc for 28 days; type: functional; conditions: 672 h
Streptococcus pyogenes = assay: Antibacterial activity against Streptococcus hemolyticus; type: functional
Pasteurella multocida = assay: Antibacterial activity against Pasteurella multocida; type: functional
Providencia rettgeri = assay: Antibacterial activity against Proteus rettgeri; type: functional
Bacillus subtilis [4] = assay: […] activity against Bacillus subtilis assessed as inhibition zone at 120 ug/disk; type: functional; conditions: read-out: IZ
P388 = assay: Cytotoxicity against mouse P388 cells; type: functional, cell-based
Candida albicans [5] = assay: Antifungal activity against Candida albicans assessed as inhibition zone at 120 ug/disk; type: functional; conditions: read-out: IZ
[6] = system: Mycobacterium tuberculosis; assay: Antibacterial activity against Mycobacterium tuberculosis H37Rv; type: functional
Cryptococcus neoformans [7] = assay: Antimicrobial activity against Cryptococcus neoformans; type: functional
[8] = system: Trichophyton mentagrophytes; assay: Antimicrobial activity against Trichophyton mentagrophytes; type: functional
Pyricularia oryzae = assay: Antimicrobial activity against Pyricularia orizae; type: functional
Candida albicans [9] = assay: Antifungal activity against Candida albicans; type: functional
Saccharomyces cerevisiae = assay: Antimicrobial activity against Saccharomyces cerevisiae; type: functional
Proteus vulgaris = assay: Antibacterial activity against Proteus vulgaris; type: functional
Bacillus subtilis [10] = assay: Antibacterial activity against Bacillus subtilis; type: functional
Trichophyton rubrum = assay: Antifungal activity against Trichophyton rubrum; type: functional
[11] = system: Colletotrichum gloeosporioides; assay: Antimicrobial activity against Glomerella cingulata; type: functional
Candida albicans [12] = assay: Antifungal activity against Candida albicans SC5314; type: functional
Cryptococcus neoformans [13] = assay: Antifungal activity against Cryptococcus neoformans; type: functional
Candida albicans [14] = assay: Antifungal activity against Candida albicans YO109; type: functional
Ehrlich [15] = assay: Antitumor activity against mouse Ehrlich carcinoma cells xenografted in white mouse assessed as growth inhibition at 20 mg/kg, ip for 7 days; type: functional; conditions: 168 h, read-out: GI
HCT-116 = assay: Cytotoxicity against human HCT116 cells; type: functional, cell-based
MCF7 [16] = assay: Cytotoxicity against human MCF7 cells; type: functional, cell-based
PC-3 = assay: Cytotoxicity against human PC3 cells; type: functional, cell-based
Candida albicans [17] = assay: Antifungal activity against Candida albicans assessed as inhibition zone at 2 ug/disk; type: functional; conditions: read-out: IZ
MIA PaCa-2 = assay: Cytotoxicity against human MIAPaCa2 cells; type: functional, cell-based
MDA-MB-231 [18] = assay: Cytotoxicity against human MDA231 cells; type: functional, cell-based
UMUC3 = assay: Cytotoxicity against human UM-UC-3 cells; type: functional, cell-based
HT-29 = assay: Cytotoxicity against human HT-29 cells; type: functional, cell-based
A549 = assay: Cytotoxicity against human A549 cells by MTT assay; type: functional, cell-based
HL-60 [19] = assay: Cytotoxicity against human HL60 cells by MTT assay; type: functional, cell-based
SMMC-7721 = assay: Cytotoxicity against human SMMC7721 cells by MTT assay; type: functional, cell-based
MCF7 [20] = assay: Cytotoxicity against human MCF7 cells by MTT assay; type: functional, cell-based
SW480 = assay: Cytotoxicity against human SW480 cells by MTT assay; type: functional, cell-based
Enterobacter sp. = assay: Antimicrobial activity against Enterobacter sp.; type: functional
Citrobacter = assay: Antimicrobial activity against Citrobacter; type: functional
Staphylococcus aureus = assay: Antibacterial activity against Staphylococcus aureus; type: functional
Klebsiella sp. = assay: Antimicrobial activity against Klebsiella sp.; type: functional
Proteus sp. = assay: Antimicrobial activity against Proteus sp.; type: functional; conditions: Proteus sp. (in: enterobacteria)
Escherichia coli = assay: Antibacterial activity against Escherichia coli; type: functional
Salmonella sp. [21] = assay: Antimicrobial activity against Salmonella sp.; type: functional
Enterococcus faecalis = assay: Antimicrobial activity against Streptococcus faecalis; type: functional
L1210 = assay: Cytotoxicity against mouse L1210 cells; type: functional, cell-based
NCI-H460 = assay: Cytotoxicity against human NCI-H460 cells; type: functional, cell-based
V79 = assay: Cytotoxicity against chinese hamster V79 cells; type: cell-based; conditions: Cricetulus griseus
ACHN = assay: Cytotoxicity against human ACHN cells; type: functional, cell-based
DLD-1 = assay: Cytotoxicity against human DLD1 cells; type: functional, cell-based
MDA-MB-231 [22] = assay: Cytotoxicity against human MDA-MB-231 cells; type: functional, cell-based
Ruegeria atlantica = assay: […] activity against Ruegeria atlantica assessed as inhibition zone at 50 ug/disk; type: functional; conditions: read-out: IZ
HL-60 [23] = assay: Cytotoxicity against human HL60 cells; type: functional, cell-based
MDA-MB-468 = assay: Cytotoxicity against human MDA-MB-468 cells; type: functional, cell-based
KB = assay: Growth inhibition of human KB cells; type: functional, cell-based
[24] = system: Clavibacter michiganensis; assay: Antibacterial activity against Clavibacter michiganensis; type: functional
[25] = system: Xanthomonas citri pv. malvacearum; assay: Antibacterial activity against Xanthomonas malvacearum; type: functional
Mycobacterium = assay: Antibacterial activity against Mycobacterium B5; type: functional
Ehrlich [26] = assay: Antitumor activity against mouse Ehrlich carcinoma cells xenografted in white mouse assessed as growth inhibition at 0.2 mg/kg, ip for 7 days; type: functional; conditions: 168 h, read-out: GI
Ehrlich [27] = assay: Antitumor activity against mouse Ehrlich carcinoma cells xenografted in white mouse assessed as growth inhibition at 50 mg/kg, ip for 7 days; type: functional; conditions: 168 h, read-out: GI
[28] = system: Chlamydomonas reinhardtii; assay: Algicidal activity against Chlamydomonas reinhardtii IAM C-238; type: functional
[Chlorella] fusca = Algicidal activity against Chlorella fusca IAM C-28; type: functional; conditions: Scenedesmus fuscus
Catharanthus roseus = assay: Herbicidal activity against Catharanthus roseus; type: functional
Nostoc commune = assay: Growth inhibition of Nostoc commune NIES 24; type: functional
Armoracia rusticana = assay: Herbicidal activity against Armoracia rusticana; type: functional
Daucus carota = assay: Herbicidal activity against Daucus carota; type: functional
[29] = system: Auxenochlorella pyrenoidosa; assay: Algicidal activity against Chlorella pyrenoidosa IAM C-212; type: functional
Anabaena cylindrica = assay: Growth inhibition of Anabaena cylindrica NIES 19; type: functional
Dunaliella tertiolecta = assay: Algicidal activity against Dunaliella tertiolecta ATCC 30929; type: functional
Trichormus variabilis = assay: Growth inhibition of Anabaena variabilis NIES 23; type: functional
Dunaliella salina = assay: Algicidal activity against Dunaliella salina; type: functional

C=C(C)C1CNC(NCC=C(C)C)=NO1 (stereo not drawn)
IC50 (Trypanosoma cruzi [1]): 93 µg/mL (≈ 444 µM)
IC50 (Trypanosoma cruzi [2]): 27 µg/mL (≈ 129 µM)

CN1CN([C@H]2C[C@H](O)[C@@H](CO)O2)C(=O)NC1=O
Activity (Haemophilus): 2 to 125 µg/mL
Activity (Klebsiella pneumoniae): 2 to 125 µg/mL
Activity (Morganella morganii): 2 to 125 µg/mL
MIC (Serratia marcescens): 2 to 125 µg/mL (≈ 8.16 to 510 µM)
Activity (Salmonella sp. [3]): 2 to 125 µg/mL
survival at 400 mg/kg (Herpesviridae sp.): 50%
Activity (Streptococcus pyogenes): 2 to 125 µg/mL
Activity (Pasteurella multocida): 2 to 125 µg/mL
Activity (Providencia rettgeri): 2 to 125 µg/mL

COc1cc(C2(c3ncc[nH]3)SSSCC2O)ccc1O (single isomer, unassigned; (+))
zone of inhibition at 120 µg/disc (Bacillus subtilis [4]): 4 mm
IC50 (P388): 21600 nM
zone of inhibition at 120 µg/disc (Candida albicans [5]): 4 mm
Activity [6]: 10%

C1SSCSSS1
MIC (Cryptococcus neoformans [7]): 6.25 µg/mL (≈ 33.2 µM)
MIC [8]: 3.12 µg/mL (≈ 16.6 µM)
MIC (Pyricularia oryzae): 12.5 µg/mL (≈ 66.4 µM)
MIC (Candida albicans [9]): 6.25 µg/mL (≈ 33.2 µM)
MIC (Saccharomyces cerevisiae): 6.25 µg/mL (≈ 33.2 µM)
MIC (Proteus vulgaris): 50 µg/mL (≈ 265 µM)
MIC (Bacillus subtilis [10]): 50 µg/mL (≈ 265 µM)
MIC (Trichophyton rubrum): 3.12 µg/mL (≈ 16.6 µM)
MIC [11]: 12.5 µg/mL (≈ 66.4 µM)

CC[C@H]1CC/C(=C2\C(=O)O[C@H](C)C2=O)O1
MIC80 (Candida albicans [12]): 32 µg/mL (≈ 152 µM)
MIC80 (Cryptococcus neoformans [13]): 16 µg/mL (≈ 76.1 µM)
MIC80 (Trichophyton rubrum): 64 µg/mL (≈ 304 µM)
MIC80 (Candida albicans [14]): 8 µg/mL (≈ 38.1 µM)

COc1nnc2n(C)ncnc1-2 [PSEUDOIODININE]
inhibition in vivo at 20 mg/kg (Ehrlich [15]): 64%

COc1cc(CCN)c2c(c1OC)SSSSS2 [VARACIN]
IC90 (HCT-116): 0.05 µg/mL (≈ 0.147 µM)
IC50 (MCF7 [16]): 1.69 nM
IC50 (PC-3): 0.6 nM
zone of inhibition at 2 µg/disc (Candida albicans [17]): 14 mm
IC50 (MIA PaCa-2): 1.8 nM

COc1cc(CCN)c2c(c1OC)SS[S+]2[O-] (stereo not drawn)
IC50 (MDA-MB-231 [18]): 2.4 to 11.9 nM
IC50 (PC-3): 2.4 to 11.9 nM
IC50 (UMUC3): 2.4 to 11.9 nM
IC50 (MIA PaCa-2): 2.4 to 11.9 nM
IC50 (HT-29): 2.4 to 11.9 nM

CN1CC[C@]23c4ccccc4N[C@H]1[C@@]21CCN2CN4c5ccccc5[C@@]56CCN(C)[C@@]45N(c4c6cccc41)[C@@H]23
IC50 (A549): > 40000 nM
IC50 (HL-60 [19]): > 40000 nM
IC50 (SMMC-7721): > 40000 nM
IC50 (MCF7 [20]): > 40000 nM
IC50 (SW480): > 40000 nM

COc1c(O)cc(CCN)c2c1SSSSS2
MIC (Enterobacter sp.): 0.1 to 0.6 µg/mL (≈ 0.307 to 1.84 µM)
MIC (Citrobacter): 0.1 to 0.6 µg/mL (≈ 0.307 to 1.84 µM)
MIC (Staphylococcus aureus): 0.1 to 0.6 µg/mL (≈ 0.307 to 1.84 µM)
MIC (Klebsiella sp.): 0.1 to 0.6 µg/mL (≈ 0.307 to 1.84 µM)
MIC [8]: 20 µg/mL (≈ 61.4 µM)
MIC (Proteus sp.): 0.1 to 0.6 µg/mL (≈ 0.307 to 1.84 µM)
MIC (Escherichia coli): 0.1 to 0.6 µg/mL (≈ 0.307 to 1.84 µM)
MIC (Candida albicans [9]): 40 µg/mL (≈ 123 µM)
MIC (Salmonella sp. [21]): 0.1 to 0.6 µg/mL (≈ 0.307 to 1.84 µM)
MIC (Enterococcus faecalis): 0.1 to 0.6 µg/mL (≈ 0.307 to 1.84 µM)
IC50 (L1210): 1 µg/mL (≈ 3.07 µM)

COc1c(SC)c(CCN(C)C)c2sc3c(OC)c(OC)c(SC)c(CCN(C)C)c3ssc2c1OC [LISSOCLIBADIN 2]
IC50 (NCI-H460): 270 nM
IC50 (V79): 210 nM
IC50 (HCT-116): 140 nM
IC50 (ACHN): 240 nM
IC50 (DLD-1): 100 nM
IC50 (MDA-MB-231 [22]): 200 nM
zone of inhibition at 50 µg/disc (Ruegeria atlantica): 28.2 mm
IC50 (HL-60 [23]): 80 nM

COc1c(SC)c(CCN(C)C)c2sc3c(CCN(C)C)c(SC)c(OC)c(OC)c3ssc2c1OC [LISSOCLINOTOXIN F]
IC50 (V79): 280 nM
IC50 (MDA-MB-468): 4.2 µg/mL (≈ 6.97 µM)
IC50 (HL-60 [23]): 230 nM

Nc1ncn([C@@H]2O[C@H](CO)[C@@H](O)[C@H]2O)c(=O)n1 [AZACITIDINE]
IC50 (KB): 0.23 µg/mL (≈ 0.942 µM)
MIC (Escherichia coli): 0.01 µg/mL (≈ 0.0409 µM)

COc1nnc2nn(C)cnc1-2
MIC [24]: 5000 to 50000 µg/mL (≈ 30300 to 303000 µM)
MIC [25]: 5000 to 50000 µg/mL (≈ 30300 to 303000 µM)
MIC (Mycobacterium): 5000 to 50000 µg/mL (≈ 30300 to 303000 µM)
inhibition in vivo at 0.2 mg/kg (Ehrlich [26]): 40%

COc1[nH]nc2nncnc12
inhibition in vivo at 50 mg/kg (Ehrlich [27]): 83%

Cn1ncnc2c(=O)[nH]nc1-2
MIC [28]: 30 µM (≈ 4.53 µg/mL)
MIC ([Chlorella] fusca): 5 µM (≈ 0.756 µg/mL)
MIC (Catharanthus roseus): 1 to 2 µg/mL (≈ 6.62 to 13.2 µM)
MIC (Nostoc commune): 20 µM (≈ 3.02 µg/mL)
MIC (Serratia marcescens): 7 µg/mL (≈ 46.3 µM)
MIC (Armoracia rusticana): 1 to 2 µg/mL (≈ 6.62 to 13.2 µM)
MIC (Daucus carota): 1 to 2 µg/mL (≈ 6.62 to 13.2 µM)
MIC [29]: 30 µM (≈ 4.53 µg/mL)
MIC (Anabaena cylindrica): 30 µM (≈ 4.53 µg/mL)
MIC (Dunaliella tertiolecta): 20 µM (≈ 3.02 µg/mL)
MIC (Trichormus variabilis): 30 µM (≈ 4.53 µg/mL)
MIC (Escherichia coli): 8 µg/mL (≈ 52.9 µM)
MIC (Proteus vulgaris): 12 µg/mL (≈ 79.4 µM)
MIC (Bacillus subtilis [10]): 6 µg/mL (≈ 39.7 µM)
MIC (Dunaliella salina): 15 µM (≈ 2.27 µg/mL)

From ChEMBL document CHEMBL4265876, “Natural Products with Heteroatom-Rich Ring Systems” (J Nat Prod, 2017)
